The results in this text go back to patent publication US20240287080A1 (IDEAYA Biosciences Inc., priority 2021, published 2024).

As usually defined, the IC50 is the concentration that gives 50% inhibition.

SMILES strings stand for the structures.

The target in the first test is T1, Pol theta (1-899) (Homo sapiens, UniProt O75417).
T1 construct: Pol theta (1-899) (5 nM) in assay buffer
T1 sequence (O75417 1-899): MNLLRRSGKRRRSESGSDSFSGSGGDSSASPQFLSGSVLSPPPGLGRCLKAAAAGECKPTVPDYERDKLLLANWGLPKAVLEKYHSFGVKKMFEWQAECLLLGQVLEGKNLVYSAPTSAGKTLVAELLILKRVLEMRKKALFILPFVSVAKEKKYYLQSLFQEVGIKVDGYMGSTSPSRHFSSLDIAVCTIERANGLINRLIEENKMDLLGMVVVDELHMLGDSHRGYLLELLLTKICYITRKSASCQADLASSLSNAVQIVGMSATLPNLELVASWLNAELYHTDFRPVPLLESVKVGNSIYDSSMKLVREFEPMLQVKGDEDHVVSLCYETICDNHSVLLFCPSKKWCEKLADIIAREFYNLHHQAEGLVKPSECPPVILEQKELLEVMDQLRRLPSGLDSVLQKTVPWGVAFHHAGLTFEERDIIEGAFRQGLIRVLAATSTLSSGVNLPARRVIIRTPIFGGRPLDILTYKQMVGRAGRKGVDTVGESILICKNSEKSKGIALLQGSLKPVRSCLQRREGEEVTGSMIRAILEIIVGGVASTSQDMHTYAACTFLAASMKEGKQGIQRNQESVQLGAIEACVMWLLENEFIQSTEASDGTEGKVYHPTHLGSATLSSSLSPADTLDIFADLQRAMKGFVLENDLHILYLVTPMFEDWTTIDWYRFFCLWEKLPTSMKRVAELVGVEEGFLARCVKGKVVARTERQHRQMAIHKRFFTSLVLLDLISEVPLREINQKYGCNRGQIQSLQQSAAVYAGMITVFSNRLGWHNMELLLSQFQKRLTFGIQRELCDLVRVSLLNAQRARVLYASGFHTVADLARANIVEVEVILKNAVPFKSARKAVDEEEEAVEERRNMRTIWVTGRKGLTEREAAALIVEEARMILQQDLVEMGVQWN
The test is described as follows: Pol theta ATPase activity, NADH oxidation-coupled enzymatic assay (ATPase NADH coupling: Standard Screening: hPolQ). In kind it is biochemical. Particulars: Pol theta (1-899) 5 nM, NADH oxidation-coupled ATPase assay; compounds of Table 3. The procedure, abridged:
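Rates of ATP hydrolysis taken from 60-min A340 traces of NADH oxidation via PK/LDH coupling, then fit four-parameter for IC50, Hill slope and max inhibition. Enzyme (5 nM, 1-899) and compounds preincubated 15 min before ATP 100 μM and 50-thymine ssDNA 300 nM (stock, equal volume added).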
For the compound `COc1nnc(NC(=O)c2cnc(C)cc2-c2ccc(F)c(OC)c2)s1` [Example 330, 4-(4-fluoro-3-methoxyphenyl)-N-(5-methoxy-1,3,4-thiadiazol-2-yl)-6-methylpyridine-3-carboxamide], the IC50 was 1000 to 10000 nM. In turn, `COc1nnc(NC(=O)c2cnc(C)cc2-c2ccsc2)s1` [Example 388, N-(5-methoxy-1,3,4-thiadiazol-2-yl)-6-methyl-4-(thiophen-3-yl)nicotinamide] yielded an IC50 of 1000 to 10000 nM. Compound `COc1nnc(NC(=O)c2ccc(C#N)cc2-c2cc(Cl)ncc2OC)s1` [Example 248, 2-(2-chloro-5-methoxypyridin-4-yl)-4-cyano-N-(5-methoxy-1,3,4-thiadiazol-2-yl)benzamide] came in with an IC50 of no more than 200 nM. Compound `COc1nnc(NC(=O)c2cnc(C)cc2-c2cccc(N3CCOCC3)c2)s1` [Example 415, N-(5-methoxy-1,3,4-thiadiazol-2-yl)-6-methyl-4-[3-(morpholin-4-yl)phenyl]pyridine-3-carboxamide] gave an IC50 of 1000 to 10000 nM.

The compound `COc1nnc(NC(=O)c2cnc(C)cc2-c2cccc(F)c2)s1` [Example 421, 4-(3-fluorophenyl)-N-(5-methoxy-1,3,4-thiadiazol-2-yl)-6-methylpyridine-3-carboxamide] registered an IC50 of 500 to 1000 nM.

Compound `COc1nnc(NC(=O)c2cnc(C)cc2-c2cccc(C(N)=O)c2)s1` [Example 488, 4-(3-carbamoylphenyl)-N-(5-methoxy-1,3,4-thiadiazol-2-yl)-6-methylnicotinamide] returned a concentration for half-maximal inhibition (IC50) of 1000 to 10000 nM. Compound `COc1cnc(Cl)cc1-c1cc(C)ncc1C(=O)Nc1nnc(OC2CCCN(C3COC3)C2)s1` (centres unmarked) [Example 250, 2′-chloro-5′-methoxy-6-methyl-N-(5-((1-(oxetan-3-yl)piperidin-3-yl)oxy)-1,3,4-thiadiazol-2-yl)-[4,4′-bipyridine]-3-carboxamide] displayed an IC50 of no more than 200 nM. On the same count and under the same terms, to `COc1nnc(NC(=O)c2cnc(C)cc2-c2ccc(OC)c(C#N)c2)s1` [Example 345, 4-(3-cyano-4-methoxyphenyl)-N-(5-methoxy-1,3,4-thiadiazol-2-yl)-6-methylpyridine-3-carboxamide] belongs 1000 to 10000 nM; to `COc1nnc(NC(=O)c2cnc(C)cc2-c2ccc3c(c2)OC(F)(F)O3)s1` [Example 349, 4-(2,2-difluoro-2H-1,3-benzodioxol-5-yl)-N-(5-methoxy-1,3,4-thiadiazol-2-yl)-6-methylpyridine-3-carboxamide], 1000 to 10000 nM; to `COc1nnc(NC(=O)c2cnc(C)cc2-c2ccc(F)c(F)c2)s1` [Example 354, 4-(3,4-difluorophenyl)-N-(5-methoxy-1,3,4-thiadiazol-2-yl)-6-methylpyridine-3-carboxamide], 1000 to 10000 nM. The compound `COc1nnc(NC(=O)c2cnc(C)cc2-c2ccc(C(=O)O)cc2)s1` [Example 366, 4-(5-((5-methoxy-1,3,4-thiadiazol-2-yl)carbamoyl)-2-methylpyridin-4-yl)benzoic acid] had an IC50 of 1000 to 10000 nM. `COc1cnc(Cl)cc1-c1cc(C)ncc1C(=O)Nc1nnc(OCCN(C)CC(F)(F)F)s1` [Example 317, 2′-chloro-5′-methoxy-6-methyl-N-(5-(2-(methyl(2,2,2-trifluoroethyl)amino)ethoxy)-1,3,4-thiadiazol-2-yl)-[4,4′-bipyridine]-3-carboxamide] gave an IC50 of no more than 200 nM. `COc1nnc(NC(=O)c2cnc(C)cc2-c2cccc(S(=O)(=O)N(C)C)c2)s1` [Example 396, 4-[3-(dimethylsulfamoyl)phenyl]-N-(5-methoxy-1,3,4-thiadiazol-2-yl)-6-methylpyridine-3-carboxamide] returned an IC50 of 1000 to 10000 nM. Compound `COc1nnc(NC(=O)c2cnc(C)cc2-c2ccc(C(N)=O)cc2)s1` [Example 353, 4-(4-carbamoylphenyl)-N-(5-methoxy-1,3,4-thiadiazol-2-yl)-6-methylpyridine-3-carboxamide] came in with an IC50 of 1000 to 10000 nM. Regarding `COc1nnc(NC(=O)c2cnc(C)cc2-c2cc(C3CC3)nn2C2CCCCO2)s1` (centres unmarked) [Example 350, 4-(3-cyclopropyl-1-(tetrahydro-2H-pyran-2-yl)-1H-pyrazol-5-yl)-N-(5-methoxy-1,3,4-thiadiazol-2-yl)-6-methylnicotinamide], the IC50 lay in the range of 1000 to 10000 nM. `COc1nnc(NC(=O)c2cnc(C)cc2-c2ccc3[nH]ccc3c2)s1` [Example 352, 4-(1H-indol-5-yl)-N-(5-methoxy-1,3,4-thiadiazol-2-yl)-6-methylpyridine-3-carboxamide] came in with an IC50 of 1000 to 10000 nM. Same read-out and setting: for `COc1nnc(NC(=O)c2cnc(C)cc2-c2cccc(C)c2F)s1` [Example 414, 4-(2-fluoro-3-methylphenyl)-N-(5-methoxy-1,3,4-thiadiazol-2-yl)-6-methylpyridine-3-carboxamide] the value was no more than 200 nM.

The test is the same for the next values; noted with them: Table 4; Pol theta (1-899) 5 nM, ATP, dT50 ssDNA.
For the compound `COc1cnc(Cl)cc1-c1cc(C)ncc1C(=O)Nc1nnc(OCC(C)C)s1` [Example 21, 2′-chloro-N-(5-isobutoxy-1,3,4-thiadiazol-2-yl)-5′-methoxy-6-methyl-(4,4′-bipyridine)-3-carboxamide], the half-inhibitory concentration (IC50) was no more than 200 nM. Still for that read-out and setting: for `COc1cnc(Cl)cc1-c1cc(C)ncc1C(=O)Nc1nnc(O)s1` [Example 31, 2′-chloro-N-(5-hydroxy-1,3,4-thiadiazol-2-yl)-5′-methoxy-6-methyl-(4,4′-bipyridine)-3-carboxamide] the value was 200 to 500 nM; for `COc1nnc(NC(=O)c2cnc(C)cc2-c2c(OC)cnc(Cl)c2F)s1` [Example 47, 2′-chloro-3′-fluoro-5′-methoxy-N-(5-methoxy-1,3,4-thiadiazol-2-yl)-6-methyl-(4,4′-bipyridine)-3-carboxamide], no more than 200 nM. `COc1cnc(Cl)cc1-c1cc(C)ncc1C(=O)Nc1nnc(OCC(C)(C)C#N)s1` [Example 10, 2′-chloro-N-(5-(2-cyano-2-methylpropoxy)-1,3,4-thiadiazol-2-yl)-5′-methoxy-6-methyl-(4,4′-bipyridine)-3-carboxamide]: the IC50 is no more than 200 nM.

For `COc1cnc(Cl)cc1-c1cc(C)ncc1C(=O)Nc1nnc(OC2CCC2)s1` [Example 11, 2′-chloro-N-(5-cyclobutoxy-1,3,4-thiadiazol-2-yl)-5′-methoxy-6-methyl-(4,4′-bipyridine)-3-carboxamide], the IC50 was no more than 200 nM.

Still in this test, the particulars now being: Table 5; Pol theta (1-899) 5 nM, ATP, dT50 ssDNA.
`COc1cnc(Cl)c(F)c1-c1cc(C)ncc1C(=O)Nc1nnc(O[C@H]2COC3(CC3)C2)s1` (single isomer, unassigned) [Example 210] returned a half-inhibitory concentration (IC50) of no more than 200 nM. As to `COc1cnc(Cl)cc1-c1cc(C)ncc1C(=O)Nc1nnc(O[C@H]2C[C@H](OC)C2)s1` (single isomer, unassigned) [Example 133, 2′-chloro-5′-methoxy-N-(5-((1r,3r)-3-methoxycyclobutoxy)-1,3,4-thiadiazol-2-yl)-6-methyl-(4,4′-bipyridine)-3-carboxamide], the IC50 is no more than 200 nM. `COc1nnc(NC(=O)c2cn3c(C)ncc3cc2-c2cc(Cl)ncc2OC)s1` [Example 103, 7-(2-chloro-5-methoxypyridin-4-yl)-N-(5-methoxy-1,3,4-thiadiazol-2-yl)-3-methylimidazo(1,5-a)pyridine-6-carboxamide]: the IC50 was no more than 200 nM.

On to `COc1cnc(Cl)cc1-c1cc(C)ncc1C(=O)Nc1nnc(O[C@H]2C[C@@H]3CC[C@H]2O3)s1` (single isomer, unassigned) [Example 217], for which the IC50 is no more than 200 nM. In the case of `COc1cnc(C)c(F)c1-c1cc(C)ncc1C(=O)Nc1nnc(O[C@H]2COC3(CC3)C2)s1` (single isomer, unassigned) [Example 208], the IC50 was no more than 200 nM. `COc1cnc(C)c(F)c1-c1cc(C)ncc1C(=O)Nc1nnc(OC2COC2)s1` [Example 204]: the IC50 is no more than 200 nM. The compound `COc1nnc(NC(=O)c2cnc(C)cc2-c2cccn3nnnc23)s1` [Example 85, N-(5-methoxy-1,3,4-thiadiazol-2-yl)-6-methyl-4-(tetrazolo(1,5-a)pyridin-8-yl)nicotinamide] returned an IC50 of 1000 to 10000 nM. Regarding `COc1cnc(Cl)cc1-c1cc(C)ncc1C(=O)Nc1nnc(O[C@H]2CCC[C@](C)(O)C2)s1` (racemic) [Example 178, rac-2′-chloro-N-(5-(((1R,3R)-3-hydroxy-3-methylcyclohexyl)oxy)-1,3,4-thiadiazol-2-yl)-5′-methoxy-6-methyl-(4,4′-bipyridine)-3-carboxamide], the IC50 is no more than 200 nM. On the same count and under the same terms, for `COc1cnc(Cl)cc1-c1cc(C)ncc1C(=O)Nc1nnc(O[C@H]2CC[C@@]3(CCO3)CC2)s1` (single isomer, unassigned) [Example 186, N-(5-(((4r,7r)-1-oxaspiro(3.5)nonan-7-yl)oxy)-1,3,4-thiadiazol-2-yl)-2′-chloro-5′-methoxy-6-methyl-(4,4′-bipyridine)-3-carboxamide] the value was no more than 200 nM; for `COc1nnc(NC(=O)c2cnc(C3CCCC3)cc2-c2cc(Cl)ncc2OC)s1` [Example 143, 2′-chloro-6-cyclopentyl-5′-methoxy-N-(5-methoxy-1,3,4-thiadiazol-2-yl)-(4,4′-bipyridine)-3-carboxamide], 200 to 500 nM; for `COc1cnc(Cl)c(F)c1-c1cc(C)ncc1C(=O)Nc1nnc(O[C@H]2CCO[C@H]2C)s1` (single isomer, unassigned) [Example 164], no more than 200 nM.

Compound `Cc1cc(-c2cc(Cl)ncc2OC(F)F)c(C(=O)Nc2nnc(O[C@@H]3COC4(CC4)C3)s2)cn1` (single isomer, unassigned) [Example 232] gave a half-maximal inhibitory concentration (IC50) of no more than 200 nM.

Staying with this test, now noted: Table 5; values given as bound; Pol theta (1-899) 5 nM, ATP, dT50 ssDNA.
In the case of `COc1nnc(NC(=O)c2cn(-c3cc(Cl)ncc3OC)nn2)s1` [Example 234, 1-(2-chloro-5-methoxypyridin-4-yl)-N-(5-methoxy-1,3,4-thiadiazol-2-yl)-1H-1,2,3-triazole-4-carboxamide], the IC50 was greater than 10000 nM.
